The target in this assay is T1, LXRβ (Homo sapiens, UniProt P55055).
T1 construct: Co-transfection expression plasmids, comprising full-length LXRα (pCMX-h LXRα or LXRβ (pCMX-hLXRβ)); expressed in transfected cells; host or cells: CV-1 African green monkey kidney cells, transient transfection with pCMX-hLXRβ
T1 sequence (P55055 1-460): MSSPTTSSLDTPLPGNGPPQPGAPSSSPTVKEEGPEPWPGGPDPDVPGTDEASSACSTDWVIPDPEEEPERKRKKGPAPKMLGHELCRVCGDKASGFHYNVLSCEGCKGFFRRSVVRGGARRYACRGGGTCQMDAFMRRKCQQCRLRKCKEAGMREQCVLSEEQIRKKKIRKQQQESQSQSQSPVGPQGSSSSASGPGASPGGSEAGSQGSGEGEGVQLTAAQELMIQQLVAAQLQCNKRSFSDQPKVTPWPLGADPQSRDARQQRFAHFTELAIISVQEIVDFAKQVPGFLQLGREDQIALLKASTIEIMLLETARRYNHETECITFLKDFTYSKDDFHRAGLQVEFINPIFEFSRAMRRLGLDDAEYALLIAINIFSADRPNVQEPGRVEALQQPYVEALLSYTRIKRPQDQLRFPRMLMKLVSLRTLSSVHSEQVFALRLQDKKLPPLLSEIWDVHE
T1 sequence (P19793 1-462 partner): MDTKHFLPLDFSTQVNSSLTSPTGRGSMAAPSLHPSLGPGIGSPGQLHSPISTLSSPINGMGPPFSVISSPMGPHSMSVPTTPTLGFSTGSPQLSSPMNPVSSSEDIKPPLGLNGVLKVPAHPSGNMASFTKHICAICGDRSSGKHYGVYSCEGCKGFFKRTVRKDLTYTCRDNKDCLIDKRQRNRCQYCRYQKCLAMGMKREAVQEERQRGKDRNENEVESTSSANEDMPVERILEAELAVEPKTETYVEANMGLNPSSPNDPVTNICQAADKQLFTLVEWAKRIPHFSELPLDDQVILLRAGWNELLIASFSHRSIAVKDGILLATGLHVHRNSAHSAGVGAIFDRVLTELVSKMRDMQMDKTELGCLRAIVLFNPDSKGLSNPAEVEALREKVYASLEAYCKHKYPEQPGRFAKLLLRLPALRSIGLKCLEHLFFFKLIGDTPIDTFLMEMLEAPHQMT
The assay is described as follows: LXR/LXRE co-transfection assay (luciferase reporter) in CV-1 cells, LXRβ. The class given is cell-based. The following applies: for EC50: CV-1 cells transfected with pCMX-hLXRβ and LXREx1-Tk-Luciferase, 20 hours incubation, read-out: LXRbeta agonism EC50; for Emax: CV-1 cells, relative to maximum response of high control N-(3-((4-fluorophenyl)-(naphthalene-2-sulfonyl)amino)propyl)-2,2-dimethylpropionamide, read-out: LXRbeta % EFFICACY
From the text: To measure the ability of compounds to activate or inhibit the transcriptional activity of LXR in a cell based assay, the co-transfection assay was used. It has been shown that LXR functions as a heterodimer with RXR. For the co-transfection assay, expression plasmids for LXRα and LXRβ are introduced separately via transient transfection into mammalian cells along with a luciferase reporter plasmid that contains one copy of a DNA sequence that is bound by LXR-RXR heterodimers (LXRE; Willy, P. et. al. 1995). LXRs heterodimerize with the endogenous RXR. Treatment of transfected cells with an LXR agonist increases the transcriptional activity of LXR, which is measured by an increase in luciferase activity.
Co-transfection expression plasmids, comprising full-length LXRα (pCMX-h LXRα or LXRβ (pCMX-hLXRβ), reporter plasmid (LXREx1-Tk-Luciferase), and control (pCMX-Galactosidase expression vector) (Willey et al. Genes & Development 9 1033-1045 (1995)).
CV-1 cells were prepared 24 hours prior to the experiment by plating them into T-175 flasks or 500 cm^2 dishes in order to achieve 70-80% confluency on the day of the transfection. The number of cells to be transfected was determined by the number of plates to be screened. Each well of a 384 well plate requires 1.5×10^4 cells. DNA Transfection Reagent was prepared by mixing the required plasmid DNAs with a cationic lipid transfection reagent Transit 2020 (Mirus Bio) for CV1 by following the instructions provided with the reagents. Optimal DNA amounts were determined empirically per cell line and size of vessel to be transfected. For each T175 cm^2 flask a total of 44.4 ug for CV1 of DNA, 133 ul Transit2020 and 4.5 ml DMEM for CV1 was mixed and added. Cells were then incubated at least 5 hours at 37° C. to prepare screening cells.
Assay plates were prepared by dispensing 5 μL of compound per well of a 384 well plate to achieve final compound concentration of 10 μM and no more than 0.5% DMSO. Media was removed from the screening cells, the cells trypsinized, harvested cells by centrifugation, counted, and plated at a density of approximately 1.5×10^4 cells in the 384 well assay plate prepared above in a volume of about 95 uL. Assay plates containing both compounds and screening cells (100 μL in total volume) were incubated for 20 hours at 37° C.
After incubation with compounds, media was removed from the cells and luciferase assay reagent (30 μL/well) added. After ˜2 minutes at ambient temperature, the assay plates were read on a luminometer (PE Biosystems Northstar reader with on-board injectors, or Envision (Perkin Elmer) or equivalent).
The LXR/LXRE co-transfection assay can be used to establish the EC50/IC50 values for potency and percent activity or inhibition for efficacy. Efficacy defines the activity of a compound relative to a high control ((N-(3-((4-fluorophenyl)-(naphthalene-2-sulfonyl)amino)propyl)-2,2-dimethylpropionamide)) or a low control (DMSO/vehicle). The dose response curves are generated from a 10 point curve with concentrations differing by ½ LOG units. Each point represents the average of 4 wells of data from a 384 well plate.
The data from this assay is fitted to the following equation, from which the EC50 value may be solved: Y=Bottom+(Top−Bottom)/(1+10^((log EC50-X)*HillSlope)).
The EC50/IC50 is therefore defined as the concentration at which an agonist or antagonist elicits a response that is halfway between the Top (maximum) and Bottom (baseline) values. The EC50/IC50 values represented are the averages of at least 2 and normally 3 independent experiments. The determination of the relative efficacy or % control for an agonist is by comparison to the maximum response achieved by ((N-(3-((4-fluorophenyl)-(naphthalene-2-sulfonyl)-amino)propyl)-2,2-dimethylpropionamide) that is measured individually in each dose response experiment.
Table 1 lists LXRβ EC50 values and % efficacy measurements in the cotransfection assay for examples of this invention.
(In a reporter assay the amount or activity of a reporter protein is the signal.)

Twelve compounds from patent publication US9751869B2, “LXR modulators” (BRISTOL-MYERS SQUIBB COMPANY, priority 2013, dated 2017) can be followed below.

Usually EC50 stands for the concentration that produces a half-maximal response. As to `Cn1nc(C(C)(F)F)cc1-c1ccc(-c2cccc(S(C)(=O)=O)c2)cc1-n1nncc1-c1ccc(OC(F)(F)F)cc1` [Example 18, 1-{4-[3-(1,1-difluoroethyl)-1-methyl-1H-pyrazol-5-yl]-3′-(methylsulfonyl)biphenyl-3-yl}-5-{4-[(trifluoromethyl)oxy]phenyl}-1H-1,2,3-triazole], the EC50 was found to be 0.057 µM and the Emax amounted to 87%.
The matching figures for `CN(C)S(=O)(=O)c1cccc(-c2ccc(-c3cc(C(C)(F)F)nn3C)c(-n3nncc3-c3ccc(OC(F)(F)F)cc3)c2)c1` [Example 19, 4′-[3-(1,1-difluoroethyl)-1-methyl-1H-pyrazol-5-yl]-N,N-dimethyl-3′-(5-{4-[(trifluoromethyl)oxy]phenyl}-1H-1,2,3-triazol-1-yl)biphenyl-3-sulfonamide]: 0.091 µM and 79%.
On to `CNS(=O)(=O)c1cccc(-c2ccc(-c3cc(C(C)(F)F)nn3C)c(-n3nncc3-c3ccc(OC(F)(F)F)cc3)c2)c1` [Example 20, 4′-[3-(1,1-difluoroethyl)-1-methyl-1H-pyrazol-5-yl]-N-methyl-3′-(5-{4-[(trifluoromethyl)oxy]phenyl}-1H-1,2,3-triazol-1-yl)biphenyl-3-sulfonamide], for which the half-maximal effective concentration (EC50) turned out to be 0.038 µM and the Emax turned out to be 86%.
The matching figures for `Cn1nc(C(C)(F)F)cc1-c1ccc(-c2cc(F)c(CO)c(S(C)(=O)=O)c2)cc1-n1nncc1-c1ccc(OC(F)(F)F)cc1` [Example 21, {4′-[3-(1,1-difluoroethyl)-1-methyl-1H-pyrazol-5-yl]-3-fluoro-5-(methylsulfonyl)-3′-(5-{4-[(trifluoromethyl)oxy]phenyl}-1H-1,2,3-triazol-1-yl)biphenyl-4-yl}methanol]: 0.022 µM and 82%.
The matching figures for `Cn1nc(C(F)F)cc1-c1ccc(-c2cccc(S(C)(=O)=O)c2)cc1-n1nncc1-c1ccc(OC(F)(F)F)cc1` [Example 22, 1-{4-[3-(difluoromethyl)-1-methyl-1H-pyrazol-5-yl]-3′-(methylsulfonyl)biphenyl-3-yl}-5-{4-[(trifluoromethyl)oxy]phenyl}-1H-1,2,3-triazole]: 0.126 µM and 80%.
In the same order, the values of `Cn1nc(C(F)F)cc1-c1ccc(-c2cc(F)c(CO)c(S(C)(=O)=O)c2)cc1-n1nncc1-c1ccc(OC(F)(F)F)cc1` [Example 23, {4′-[3-(difluoromethyl)-1-methyl-1H-pyrazol-5-yl]-3-fluoro-5-(methylsulfonyl)-3′-(5-{4-[(trifluoromethyl)oxy]phenyl}-1H-1,2,3-triazol-1-yl)biphenyl-4-yl}methanol] are 0.042 µM and 79%.
Regarding `Cn1nc(C(F)(F)CO)cc1-c1ccc(-c2cccc(S(C)(=O)=O)c2)cc1-n1nncc1-c1ccc(Cl)cc1` [Example 24, 2-(5-(3-(5-(4-chlorophenyl)-1H-1,2,3-triazol-1-yl)-3′-(methylsulfonyl)-[1,1′-biphenyl]-4-yl)-1-methyl-1H-pyrazol-3-yl)-2,2-difluoroethanol], the EC50 turned out to be 1.38 µM and the Emax turned out to be 48%.
The matching figures for `Cn1nc(C(F)(F)CO)cc1-c1ccc(-c2cccc(S(C)(=O)=O)c2)cc1-n1nncc1-c1ccc(OC(F)(F)F)cc1` [Example 25, 2,2-difluoro-2-(1-methyl-5-(3′-(methylsulfonyl)-3-(5-(4-(trifluoromethoxy)phenyl)-1H-1,2,3-triazol-1-yl)-[1,1′-biphenyl]-4-yl)-1H-pyrazol-3-yl)ethanol]: 1.02 µM and 78%.
Regarding `Cn1nc(C(F)(F)CO)cc1-c1ccc(-c2cc(F)c(CO)c(S(C)(=O)=O)c2)cc1-n1nncc1-c1ccc(OC(F)(F)F)cc1` [Example 26, 2,2-difluoro-2-(5-(3′-fluoro-4′-(hydroxymethyl)-5′-(methylsulfonyl)-3-(5-(4-(trifluoromethoxy)phenyl)-1H-1,2,3-triazol-1-yl)-[1,1′-biphenyl]-4-yl)-1-methyl-1H-pyrazol-3-yl)ethanol], the EC50 was determined as 0.903 µM and the Emax was 81%.
Turning to `Cn1nc(C(F)(F)C(=O)NC(C)(C)CO)cc1-c1ccc(-c2cc(F)c(CO)c(S(C)(=O)=O)c2)cc1-n1nncc1-c1ccc(OC(F)(F)F)cc1` [Example 27, 2,2-difluoro-2-(5-(3′-fluoro-4′-(hydroxymethyl)-5′-(methylsulfonyl)-3-(5-(4-(trifluoromethoxy)phenyl)-1H-1,2,3-triazol-1-yl)-[1,1′-biphenyl]-4-yl)-1-methyl-1H-pyrazol-3-yl)-N-(1-hydroxy-2-methylpropan-2-yl)acetamide], the EC50 stood at 1.57 µM and the Emax amounted to 111%.
Turning to `Cn1nc(C(F)(F)C(=O)NC(C)(C)CO)cc1-c1ccc(-c2cccc(S(C)(=O)=O)c2)cc1-n1nncc1-c1ccc(OC(F)(F)F)cc1` [Example 28, 2,2-difluoro-N-(1-hydroxy-2-methylpropan-2-yl)-2-(1-methyl-5-(3′-(methylsulfonyl)-3-(5-(4-(trifluoromethoxy)phenyl)-1H-1,2,3-triazol-1-yl)-[1,1′-biphenyl]-4-yl)-1H-pyrazol-3-yl)acetamide], the EC50 was 0.501 µM and the Emax came out at 107%.
Turning to `Cn1nc(C(F)(F)CNCCO)cc1-c1ccc(-c2cccc(S(C)(=O)=O)c2)cc1-n1nncc1-c1ccc(OC(F)(F)F)cc1` [Example 29, 2-((2,2-difluoro-2-(1-methyl-5-(3′-(methylsulfonyl)-3-(5-(4-(trifluoromethoxy)phenyl)-1H-1,2,3-triazol-1-yl)-[1,1′-biphenyl]-4-yl)-1H-pyrazol-3-yl)ethyl)amino)ethanol], the concentration giving a half-maximal response (EC50) worked out at 1.23 µM and the Emax is 80%.
